Measurements reported in ChEMBL document CHEMBL5226302, “Small-Molecule Inhibitors Targeting the Canonical WNT Signaling Pathway for the Treatment of Cancer” (J Med Chem, 2021).
pIC50, pKi: −log10 of the molar value.

How the values were obtained:
[1] = Inhibition of CTP (unknown origin); set-up: species or system Homo sapiens
[2] = Binding affinity to Wnt/beta catenin (unknown origin) assessed as inhibition constant at 20 uM; set-up: species or system Homo sapiens

Question: With `COC(=O)c1c(-c2ccc(OC)cc2)n(C)c2c(=O)oc3ccccc3c12` as the molecule, how does the pIC50 [1] read?
Answer: 5.08

Question: What about the pKi [2] of the same molecule?
Answer: 4.98
